Assay results: patent US9670175B2, “Protected succinates for enhancing mitochondrial ATP-production” (NEUROVIVE PHARMACEUTICALS AB, priority 2012, dated 2017)

Columns and labels:
[1] = tested on: rotenone-inhibited intact human platelets; experiment: mitochondrial complex II screening assay (high-resolution respirometry); format: cell-based; conditions: for Mitochondrial Respiration: Complex II-dependent respiration, rotenone-inhibited intact human platelets
Excerpt: FIG. 1 is a schematic figure of mitochondrial complex II screening assay. […] In the assay, mitochondrial function in intact cells is repressed with the respiratory complex I inhibitor rotenone. Drug candidates are compared with endogenous substrates (succinate) before and after permeabilization of the plasma membrane to evaluate bioenergetic enhancement or inhibition.
(§1) Human platelets were isolated from venous blood collected in K2EDTA vials through two centrifugation steps in room temperature. After 10 min at 300 g, platelet rich plasma was collected and transferred to new vials. 5 min at 4600 g yielded a platelet pellet that was resuspended in an appropriate amount of plasma. The cell concentration was determined with a Swelab Alfa Hematocytometer (Boule Medical AB, Stockholm, Sweden).
Measurement of mitochondrial respiration was performed in a high-resolution oxygraph (Oxygraph—2 k, Oroboros Instruments, Innsbruck, Austria) at a constant temperature of 37° C. Platelets were suspended in the 2 mL glass chamber at a concentration of 200-400*10^6 cells/mL.
(1) Initial screen, complex II-effect, was performed with isolated intact platelets in a buffer containing 110 mM sucrose, HEPES 20 mM, taurine 20 mM, K-lactobionate 60 mM, MgCl2 3 mM, KH2PO4 10 mM, EGTA 0.5 mM, BSA 1 g/l, pH 7.1. After baseline respiration with endogenous substrates was established, complex I was inhibited with Rotenone […]. Drug candidates dissolved in DMSO were titrated in steps to 100 μM, 500 μM and 5 mM final concentration. Subsequently, cell membranes were permeabilised with digitonin (1 mg/1*10^6 pit). After stabilized respiration, Succinate 10 mM was added and after the respiration stabilized the experiment was terminated by addition of the complex III inhibitor Antimycin at final concentration 1 μg/mL and the residual respiration measured. […] In the assay, mitochondrial function in intact cells is repressed with the respiratory complex I inhibitor rotenone. Drug candidates are compared with endogenous substrates before and after permeabilization of the plasma membrane to evaluate bioenergetic enhancement or inhibition.
(1) The ideal compound stimulates respiration in rotenone-inhibited intact cells at low concentration in the CII-screening protocol without inhibitory effect on succinate stimulated respiration after permeabilization. After inhibition of respiration with mitochondrial toxins, respiration should be halted. Please refer to FIG. 1. and the listing below.

[2] = tested on: intact human platelets; experiment: mitochondrial convergent respiration screening assay (FCCP-uncoupled, high-resolution respirometry); format: cell-based; conditions: control disodium succinate, FIGS. 3A-3C
Excerpt: FIG. 2 is a schematic figure of mitochondrial convergent respiration screening assay. It describes the protocol for evaluating the potency of novel cell-permeable mitochondrial substrates. In the assay, mitochondrial activity is stimulated by uncoupling the mitochondria with the protonophore FCCP. Drug candidates are titrated to obtain the level of maximum convergent (complex I- and complex II-derived) respiration. After rotenone addition, complex II-dependent stimulation is obtained. The complex III-inhibitor antimycin is added to evaluate non mitochondrial oxygen consumption. The reference substance is succinate.
as §1, with “Sweden). […]” for “Sweden).”
(2) In the second protocol, convergent respiration, the same respiration buffer and cell concentrations as described above was used. […] The experiment was terminated by addition of 2 μM Rotenone and 1 μg/mL Antimycin and residual respiration measured. […]

[3] = previously known related compounds
[4] = titrated to 100 μM, 500 μM and 5 mM

SMILES	Mitochondrial Respiration [1, 4]	other results
CCOC(=O)CCC(=O)OCC [Diethyl succinate, reference compound]		activity in the assays exemplified [1]: inactive; Mitochondrial Respiration [1, 3]: −
COC(=O)CCC(=O)OC [Dimethyl succinate, reference compound]		activity in the assays exemplified [1]: inactive; Mitochondrial Respiration [1, 3]: −
COC(=O)CCC(=O)OCOC(=O)C(C)(C)C [Example 2, Succinic Acid 2,2-dimethyl-propionyloxymethyl Ester Methyl Ester]	++	
COC(=O)CCC(=O)OCOC(C)=O [Example 4, Succinic Acid Acetoxymethyl Ester Methyl Ester]	++	
CC(=O)OC(C)OC(=O)CCC(=O)OC(C)OC(C)=O (stereo not drawn) [Example 5, Succinic Acid bis-(1-acetoxy-ethyl)ester]	+++ (stimulation gradually increases and reaches maximum at ≦0.5 mM)	respiration (oxygen flux per unit) with stepwise titration compared to control [2]: increase in respiration
COC(=O)CCC(=O)OC(C)OC(C)=O (stereo not drawn) [Example 6, Succinic Acid 1-Acetoxy-Ethyl Ester Methyl Ester]	+	
CCC(OC(C)=O)OC(=O)CCC(=O)OC(CC)OC(C)=O (stereo not drawn) [Example 7, Succinic Acid bis-(1-acetoxy-propyl)ester]	++	
CCC(=O)OC(C)OC(=O)CCC(=O)OC(C)OC(=O)CC (stereo not drawn) [Example 8, Succinic Acid bis-(1-propionyloxy-ethyl)ester]	++	
O=C1CCC(=O)OCOCOCO1 [Example 9, 1,3,5,7-Tetraoxa-cycloundecane-8,11-dione]	+	
CCN(CC)C(=O)COC(=O)CCC(=O)OCOC(C)=O [Example 10, Succinic Acid Acetoxymethyl Ester Diethylcarbamoylmethyl Ester]	++	
CCOC(=O)OC(C)OC(=O)CCC(=O)OCC(=O)N(CC)CC (stereo not drawn) [Example 11, Succinic Acid Diethylcarbamoylmethyl Ester 1-Ethoxycarbonyloxy-Ethyl Ester]	(+)	
CCN(CC)C(=O)COC(=O)CCC(=O)OC(C)OC(C)=O (stereo not drawn) [Example 12, Succinic Acid 1-Acetoxy-Ethyl Ester Diethylcarbamoylmethyl Ester]	+	
CC(=O)OCOC(=O)CCC(=O)OC(C)OC(C)=O (stereo not drawn) [Example 13, Succinic Acid 1-Acetoxy-Ethyl Ester Acetoxymethyl Ester]	+++ (stimulation gradually increases and reaches maximum at ≦0.5 mM)	respiration (oxygen flux per unit) with stepwise titration compared to control [2]: increase in respiration
CC1(C)OC(=O)C(OC(=O)CCC(=O)OC2OC(C)(C)OC2=O)O1 (stereo not drawn) [Example 14, Succinic Acid bis-(2,2-dimethyl-5-oxo-[1,3]dioxolan-4-yl)ester]	+++ (stimulation gradually increases and reaches maximum at ≦0.5 mM)	
COC(=O)C(OC)OC(=O)CCC(=O)OC(OC)C(=O)OC (stereo not drawn) [Example 15, Succinic Acid bis-(methoxy-methoxycarbonyl-methyl)ester]	(+)	
CCOC(=O)OC(C)OC(=O)CCC(=O)OC(C)OC(C)=O (stereo not drawn) [Example 16, Succinic Acid 1-acetoxy-ethyl Ester 1-ethoxycarbonyloxy-ethyl Ester]	++	
CC(=O)OC(C)OC(=O)CCC(=O)OCOC(=O)CCC(=O)OC(C)OC(C)=O (stereo not drawn) [Example 17, Succinic Acid 3-(1-acetoxy-ethoxycarbonyl)-propionyloxymethyl Ester 1-acetoxy-ethyl Ester]	+++ (stimulation gradually increases and reaches maximum at ≦0.5 mM)	
CC(=O)OCOC(=O)CCC(=O)OCOC(=O)CCC(=O)OCOC(C)=O [Example 18, Succinic Acid 3-acetoxymethoxycarbonyl-propionyloxymethyl Ester Acetoxymethyl Ester]	+++ (stimulation gradually increases and reaches maximum at ≦0.5 mM)	
COC(=O)CCC(=O)O [Monomethyl succinate, reference compound]		activity in the assays exemplified [1]: inactive; Mitochondrial Respiration [1, 3]: −
